Experimental data: patent publication US6355799B1, “Substituted benzene compounds, process for their preparation, and herbicidal and defoliant compositions containing them” (ISK Americas Incorporated, priority 1997, dated 2002)

Legend:
Format in all cases: in vivo
[1] = test system: redroot pigweed (Amaranthus retroflexus, AMARE); experiment: Pre-emerge test, greenhouse herbicide activity screening; settings: pre-emerge, phytotoxicity rating 0-100 at 14 days after application
In short: (§1)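 Sandy loam pots; pre-emerge: sown 1 d pre-spray, surface-watered after, then bottom-watered. Post-emerge: sown 8–21 d before, 2–3 leaf stage, + 0.25% v/v NIS, bottom-watered. Acetone, 187 l/ha track spray, 15–1000 g ai/ha. 0–100 injury score, day 14.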

[2] = test system: barnyardgrass (Echinochloa crus-galli, ECHCG); experiment: as above; settings: pre-emerge, phytotoxicity rating 0-100 at 14 days after application
In short: as §1

[3] = test system: green foxtail (Setaria viridis, SETVI); experiment: as above; settings: pre-emerge, phytotoxicity rating 0-100 at 14 days after application
In short: as §1

[4] = test system: ivyleaf morningglory (Ipomoea hederacea, IPOHE); experiment: as above; settings: pre-emerge, phytotoxicity rating 0-100 at 14 days after application
In short: as §1

[5] = test system: johnsongrass (Sorghum halepense, SORHA); experiment: as above; settings: pre-emerge, phytotoxicity rating 0-100 at 14 days after application
In short: as §1

[6] = test system: lambsquarters (Chenopodium album, CHEAL); experiment: as above; settings: pre-emerge, phytotoxicity rating 0-100 at 14 days after application
In short: as §1

[7] = test system: large crabgrass (Digitaria sanguinalis, DIGSA); experiment: as above; settings: pre-emerge, phytotoxicity rating 0-100 at 14 days after application
In short: as §1

[8] = test system: sicklepod (Cassia obtusifolia, CASOB); experiment: as above; settings: pre-emerge, phytotoxicity rating 0-100 at 14 days after application
In short: as §1

[9] = test system: velvetleaf (Abutilon theophrasti, ABUTH); experiment: as above; settings: pre-emerge, phytotoxicity rating 0-100 at 14 days after application
In short: as §1

[10] = test system: field corn (Zea mays L., var. Dekalb 535, CORN); experiment: Pre-emerge test, crop safety; settings: crop damage, pre-emerge, phytotoxicity rating 0-100 at 14 days after application
In short: (§2)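 Plants grown in 10 cm pots of sandy loam mix received acetone-dissolved compounds through a moving flat-fan nozzle. Doses ranged from 15 to 1000 g ai/ha. Pre-emerge pots were seeded one day earlier, post-emerge pots 8–21 days earlier. Fourteen days on, each pot was graded 0–100 for damage.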

[11] = test system: upland rice (Oryza sp., var. Tebonnet, RICE); experiment: Pre-emerge test, crop safety; settings: crop damage, pre-emerge, phytotoxicity rating 0-100 at 14 days after application
In short: as §2

[12] = test system: barnyardgrass (Echinochloa crus-galli, ECHCG); experiment: Post-emerge test, greenhouse herbicide activity screening; settings: post-emerge, phytotoxicity rating 0-100 at 14 days after application
In short: (§3)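 Applied at 15–1000 g ai/ha from acetone in 187 l/ha spray volume. Post-emergence applications included 0.25% v/v non-ionic surfactant and reached plants sown 8–21 days before. Pre-emergence applications were incorporated by surface watering. Efficacy or crop damage was rated on a 0–100 scale after 14 days.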

[13] = test system: green foxtail (Setaria viridis, SETVI); experiment: as above; settings: post-emerge, phytotoxicity rating 0-100 at 14 days after application
In short: as §3

[14] = test system: ivyleaf morningglory (Ipomoea hederacea, IPOHE); experiment: as above; settings: post-emerge, phytotoxicity rating 0-100 at 14 days after application
In short: as §3

[15] = test system: johnsongrass (Sorghum halepense, SORHA); experiment: as above; settings: post-emerge, phytotoxicity rating 0-100 at 14 days after application
In short: as §3

[16] = test system: lambsquarters (Chenopodium album, CHEAL); experiment: as above; settings: post-emerge, phytotoxicity rating 0-100 at 14 days after application
In short: as §3

[17] = test system: large crabgrass (Digitaria sanguinalis, DIGSA); experiment: as above; settings: post-emerge, phytotoxicity rating 0-100 at 14 days after application
In short: as §3

[18] = test system: redroot pigweed (Amaranthus retroflexus, AMARE); experiment: as above; settings: post-emerge, phytotoxicity rating 0-100 at 14 days after application
In short: as §3

[19] = test system: sicklepod (Cassia obtusifolia, CASOB); experiment: as above; settings: post-emerge, phytotoxicity rating 0-100 at 14 days after application
In short: as §3

[20] = test system: velvetleaf (Abutilon theophrasti, ABUTH); experiment: as above; settings: post-emerge, phytotoxicity rating 0-100 at 14 days after application
In short: as §3

[21] = test system: field corn (Zea mays L., var. Dekalb 535, CORN); experiment: Post-emerge test, crop safety; settings: post-emerge, crop damage rating 0-100 at 14 days after application
In short: as §1

[22] = test system: upland rice (Oryza sp., var. Tebonnet, RICE); experiment: Post-emerge test, crop safety; settings: post-emerge, crop damage rating 0-100 at 14 days after application
In short: as §1

## O=C(Nc1cc(Cl)ccc1N1C(=O)C2=C(CCCC2)C1=O)c1ccc2ccccc2c1 [8-36]
[1]; rate 63 g ai/ha
  Pre-emerge Herbicidal Activity AMARE: 100
[1]; rate 250 g ai/ha
  Pre-emerge Herbicidal Activity AMARE: 100
[2]; rate 63 g ai/ha
  Pre-emerge Herbicidal Activity ECHCG: 0
[2]; rate 250 g ai/ha
  Pre-emerge Herbicidal Activity ECHCG: 0
[3]; rate 63 g ai/ha
  Pre-emerge Herbicidal Activity SETVI: 0
[3]; rate 250 g ai/ha
  Pre-emerge Herbicidal Activity SETVI: 30
[4]; rate 63 g ai/ha
  Pre-emerge Herbicidal Activity IPOHE: 10
[4]; rate 250 g ai/ha
  Pre-emerge Herbicidal Activity IPOHE: 20
[5]; rate 63 g ai/ha
  Pre-emerge Herbicidal Activity SORHA: 0
[5]; rate 250 g ai/ha
  Pre-emerge Herbicidal Activity SORHA: 0
[6]; rate 63 g ai/ha
  Pre-emerge Herbicidal Activity CHEAL: 100
[6]; rate 250 g ai/ha
  Pre-emerge Herbicidal Activity CHEAL: 100
[7]; rate 63 g ai/ha
  Pre-emerge Herbicidal Activity DIGSA: 0
[7]; rate 250 g ai/ha
  Pre-emerge Herbicidal Activity DIGSA: 40
[8]; rate 63 g ai/ha
  Pre-emerge Herbicidal Activity CASOB: 10
[8]; rate 250 g ai/ha
  Pre-emerge Herbicidal Activity CASOB: 30
[9]; rate 63 g ai/ha
  Pre-emerge Herbicidal Activity ABUTH: 80
[9]; rate 250 g ai/ha
  Pre-emerge Herbicidal Activity ABUTH: 30
[10]; rate 63 g ai/ha
  Pre-emerge Herbicidal Activity CORN: 0
[10]; rate 250 g ai/ha
  Pre-emerge Herbicidal Activity CORN: 0
[11]; rate 63 g ai/ha
  Pre-emerge Herbicidal Activity RICE: 20
[11]; rate 250 g ai/ha
  Pre-emerge Herbicidal Activity RICE: 40
[12]; 63 g ai/ha
  Post-emerge Herbicidal Activity ECHCG: 0
[12]; 250 g ai/ha
  Post-emerge Herbicidal Activity ECHCG: 20
[13]; 63 g ai/ha
  Post-emerge Herbicidal Activity SETVI: 10
[13]; 250 g ai/ha
  Post-emerge Herbicidal Activity SETVI: 10
[14]; 63 g ai/ha
  Post-emerge Herbicidal Activity IPOHE: 100
[14]; 250 g ai/ha
  Post-emerge Herbicidal Activity IPOHE: 85
[15]; 63 g ai/ha
  Post-emerge Herbicidal Activity SORHA: 0
[15]; 250 g ai/ha
  Post-emerge Herbicidal Activity SORHA: 10
[16]; 63 g ai/ha
  Post-emerge Herbicidal Activity CHEAL: 95
[16]; 250 g ai/ha
  Post-emerge Herbicidal Activity CHEAL: 100
[17]; 63 g ai/ha
  Post-emerge Herbicidal Activity DIGSA: 10
[17]; 250 g ai/ha
  Post-emerge Herbicidal Activity DIGSA: 5
[18]; 63 g ai/ha
  Post-emerge Herbicidal Activity AMARE: 95
[18]; 250 g ai/ha
  Post-emerge Herbicidal Activity AMARE: 90
[19]; 63 g ai/ha
  Post-emerge Herbicidal Activity CASOB: 70
[19]; 250 g ai/ha
  Post-emerge Herbicidal Activity CASOB: 95
[20]; 63 g ai/ha
  Post-emerge Herbicidal Activity ABUTH: 100
[20]; 250 g ai/ha
  Post-emerge Herbicidal Activity ABUTH: 100
[21]; 63 g ai/ha
  Post-emerge Herbicidal Activity CORN: 10
[21]; 250 g ai/ha
  Post-emerge Herbicidal Activity CORN: 15
[22]; 63 g ai/ha
  Post-emerge Herbicidal Activity RICE: 10
[22]; 250 g ai/ha
  Post-emerge Herbicidal Activity RICE: 20
